Test results taken from US10988462B2, “Pyrazole compounds substituted with heteroaryl and pharmaceutical use thereof” (Japan Tobacco Inc., priority 2018, dated 2021).

System: Escherichia coli WP2uvrA
Test: Ames test (reverse mutation test), pre-incubation method, strain WP2uvrA
Assay type: cell-based
Details: positive control; S9 mix −; dose 0.01 μg/plate
Excerpt: Ames Test (Reverse Mutation Test)
Two plates per treatment were used.

Structure (SMILES)	Number of revertant colonies WP2uvrA
NC(=O)C(=Cc1ccc([N+](=O)[O-])o1)c1ccco1 [AF-2, 2-(2-Furyl)-3-(5-nitro-2-furyl)acrylamide, reference compound]	154

Target: human SGLT1 (Homo sapiens (Human), UniProt P13866)
Test: SGLT1 inhibitory activity: intracellular uptake of 14C-AMG in human SGLT1-stably-expressing CHO-K1 cell line
Assay type: cell-based
Details: human SGLT1-stably-expressing CHO-K1 cells, 14C-AMG uptake; read-out: hSGLT1 IC50
Experimental: SGLT1 inhibitory activities of test compounds (IC50 values) were calculated based on the amount of intracellular uptake of labelled α-methyl-D-glucopyranoside (^14C-AMG) transported by SGLT1.
1) Formation of Human SGLT1-Expressing Plasmid
A DNA fragment containing human SGLT1 was amplified by PCR (Polymerase Chain Reaction) using pCMV6-hSGLT1 (OriGene) as a template. In the human SGLT1, NheI recognition and cleavage sequence was added to the upstream of Kozac consensus sequence derived from a vector, and a stop codon, TAG, and SalI recognition and cleavage sequence were added to the immediate downstream of the protein-translating region of human SGLT1. The purified DNA fragment was cleaved by restriction enzymes NheI and SalI, followed by ligation with pcDNA3.1 (+) which was cleaved by NheI and XhoI, thereby forming human SGLT1-expressing plasmid, pcDNA-hSGLT1. The nucleic acid sequence of human SGLT1 inserted into a vector was completely identical to the protein-translated region of human SGLT1 sequence (Accession number NM_000343) registered in GenBank, and the sequence of the portion connected to the vector was as expected.
2) Establishment of Human SGLT1-Stably-Expressing Cell Lines
Human SGLT-expressing plasmid, pcDNA-hSGLT1, was transfected into each CHO-K1 cell by Lipofectamine 2000 (Invitrogen) and cultured in the presence of G418 (Nacalai Tesque) to select drug-resistant cell lines. A cell line having the highest ratio (S/B ratio) of the amount of intracellular uptake of ^14C-AMG per cell to the amount of intracellular uptake of ^14C-AMG after treatment with a SGLT inhibitor, phlorizin, was selected as a human SGLT1-stably-expressing cell line from the drug-resistant cell lines.
3) Assessment of SGLT1 Inhibitory Activity
Human SGLT1-stably-expressing cell lines were seeded at 5×10^4 cells/well on BioCoat™ Poly-D-Lysine 96 well plate with Lid (Becton, Dickinson and Company) and cultured at 37° C. under 5% CO2 overnight. The medium was replaced with 100 μL/well of Na(−) buffer (140 mM choline chloride, 2 mM KCl, 1 mM MgCl2, 1 mM CaCl2, 10 mM HEPES, 5 mM Tris, pH 7.4), and then the mixture was let stand at 37° C. under 5% CO2 for 20 minutes. After removal of Na(−) buffer, thereto was added 40 μL/well of a test compound solution prepared with Na(+) buffer (140 mM NaCl, 2 mM KCl, 1 mM MgCl2, 1 mM CaCl2, 10 mM HEPES, 5 mM Tris, pH 7.4) comprising BSA. Then, thereto was added 40 μL/well of Na(+) buffer comprising 8 kBq of ^14C-AMG and 2 mM AMG, and the mixture was mixed well. For a blank, 40 μL/well of Na(−) buffer comprising BSA was added, and in addition, 40 μL/well of Na(−) buffer comprising 8 kBq of ^14C-AMG and 2 mM AMG was added, and the mixture was mixed well. After incubation by being let stand for 1 hour at 37° C. under 5% CO2, cells were washed twice with 100 μL/well of ice-cooled wash buffer (100 mM AMG, 140 mM choline chloride, 2 mM KCl, 1 mM MgCl2, 1 mM CaCl2, 10 mM HEPES, 5 mM Tris, pH 7.4) to terminate the reaction. A cell lysate was prepared by addition of 50 μL/well of 0.2N aqueous NaOH solution. In the assessment for the uptake ability of ^14C-AMG, the total amount of the cell lysate was transferred to OptiPlate 96 (Perkin-Elmer) with 100 μL/well of MicroScint-40 (Perkin-Elmer) dispensed and ^14C of CPM was measured with TOPCOUNT NXT (Perkin-Elmer).
Data was calculated by deducting the average value of CPM for blank well from the average value of CPM for each well treated. An inhibition rate for each test compound in each concentration was calculated from the following equation: [(A−B)/A]×100 wherein A is data for a solvent control and B is data for treatment with each test compound.

Chain of human SGLT1 (P13866 whole entry): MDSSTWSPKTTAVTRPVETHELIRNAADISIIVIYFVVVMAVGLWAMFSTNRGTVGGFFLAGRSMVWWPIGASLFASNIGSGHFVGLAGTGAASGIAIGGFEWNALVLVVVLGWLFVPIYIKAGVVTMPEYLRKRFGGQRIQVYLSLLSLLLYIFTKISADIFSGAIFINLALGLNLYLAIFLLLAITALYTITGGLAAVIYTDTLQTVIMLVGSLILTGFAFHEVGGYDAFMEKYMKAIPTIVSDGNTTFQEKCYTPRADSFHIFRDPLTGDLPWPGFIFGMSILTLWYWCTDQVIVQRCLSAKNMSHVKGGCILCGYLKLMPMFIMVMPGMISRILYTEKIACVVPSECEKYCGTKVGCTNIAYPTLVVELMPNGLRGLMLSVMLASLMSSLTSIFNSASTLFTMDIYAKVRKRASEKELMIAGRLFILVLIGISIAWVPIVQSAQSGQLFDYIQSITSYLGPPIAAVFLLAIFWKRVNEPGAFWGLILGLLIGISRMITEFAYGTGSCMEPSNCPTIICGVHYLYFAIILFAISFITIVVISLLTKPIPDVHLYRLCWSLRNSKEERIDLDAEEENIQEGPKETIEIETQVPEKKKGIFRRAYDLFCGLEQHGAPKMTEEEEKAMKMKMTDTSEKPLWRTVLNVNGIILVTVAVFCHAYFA

Structure (SMILES)	IC50 [nM]
C[C@H]1C(=O)NC[C@@H]1C(=O)Nc1cc(-c2cc(F)cc(OC(C)(C)C(F)(F)F)c2)n(-c2cnc(C(F)(F)F)nc2)n1 [Example 1, (3R,4R)—N-(5-(3-fluoro-5-((1,1,1-trifluoro-2-methylpropan-2-yl)oxy)phenyl)-1-(2-(trifluoromethyl)pyrimidin-5-yl)-1H-pyrazol-3-yl)-4-methyl-5-oxopyrrolidine-3-carboxamide]	1.9
C[C@H]1C(=O)NC[C@@H]1C(=O)Nc1cc(-c2cc(F)cc(OC(F)(F)F)c2)n(-c2cncc(F)c2)n1 [Example 2, (3R,4R)—N-(5-(3-fluoro-5-(trifluoromethoxy)phenyl)-1-(5-fluoropyridin-3-yl)-1H-pyrazol-3-yl)-4-methyl-5-oxopyrrolidine-3-carboxamide]	14
C[C@H]1C(=O)NC[C@@H]1C(=O)Nc1cc(-c2cc(F)cc(OC(F)(F)F)c2)n(-c2cncc(C(F)(F)F)c2)n1 [Example 3]	8.6
C[C@H]1C(=O)NC[C@@H]1C(=O)Nc1cc(-c2cc(F)cc(OC(C)(C)C)c2)n(-c2cnccn2)n1 [Example 4]	23
C[C@H]1C(=O)NC[C@@H]1C(=O)Nc1cc(-c2cccc(OC(F)(F)F)c2)n(-c2cncc(F)c2)n1 [Example 5]	22
C[C@H]1C(=O)NC[C@@H]1C(=O)Nc1cc(-c2cccc(OC(F)(F)F)c2)n(-c2cncc(Cl)c2)n1 [Example 6]	9
C[C@H]1C(=O)NC[C@@H]1C(=O)Nc1cc(-c2cccc(OC(F)(F)F)c2)n(-c2cncc(C(F)(F)F)c2)n1 [Example 7]	17
C[C@H]1C(=O)NC[C@@H]1C(=O)Nc1cc(-c2cc(F)cc(OC(C)(C)C(F)(F)F)c2)n(-c2ccnc(C(F)(F)F)n2)n1 [Example 9]	73
C[C@H]1C(=O)NC[C@@H]1C(=O)Nc1cc(-c2cc(F)cc(OC(C)(C)C(F)(F)F)c2)n(-c2cncc(C(F)(F)F)c2)n1 [Example 10]	1.2
C[C@H]1C(=O)NC[C@@H]1C(=O)Nc1cc(-c2cc(F)cc(OC(C)(C)C(F)(F)F)c2)n(-c2cccnc2C#N)n1 [Example 11]	8.4
C[C@H]1C(=O)NC[C@@H]1C(=O)Nc1cc(-c2cc(F)cc(OC(C)(C)C(F)(F)F)c2)n(-c2cccnc2C(F)(F)F)n1 [Example 12]	4.3
C[C@H]1C(=O)NC[C@@H]1C(=O)Nc1cc(-c2cc(F)cc(OC(C)(C)C(F)(F)F)c2)n(-c2cnccc2C(F)(F)F)n1 [Example 13]	2.9

Next, values leading:

IC50 [nM]	Structure (SMILES)
3.7	C[C@H]1C(=O)NC[C@@H]1C(=O)Nc1cc(-c2cc(F)cc(OC(C)(C)C(F)(F)F)c2)n(-c2cnccc2C#N)n1 [Example 14]
6.1	C[C@H]1C(=O)NC[C@@H]1C(=O)Nc1cc(-c2cc(F)cc(OC(C)(C)C(F)(F)F)c2)n(-c2cnc(C(F)(F)F)cn2)n1 [Example 15]
83	C[C@H]1C(=O)NC[C@@H]1C(=O)Nc1cc(-c2cc(F)cc(OC(C)(C)C(F)(F)F)c2)n(-c2nccc(C(F)(F)F)n2)n1 [Example 16]
1.3	C[C@H]1C(=O)NC[C@@H]1C(=O)Nc1cc(-c2cc(F)cc(OC(C)(C)C(F)(F)F)c2)n(-c2cncc(Cl)c2)n1 [Example 17]
29	C[C@H]1C(=O)NC[C@@H]1C(=O)Nc1cc(-c2cc(F)cc(OC(C)(C)C(F)(F)F)c2)n(-c2cncc(C(F)(F)F)n2)n1 [Example 18]
29	C[C@H]1C(=O)NC[C@@H]1C(=O)Nc1cc(-c2cc(F)cc(OC(C)(C)C(F)(F)F)c2)n(-c2nccnc2C(F)(F)F)n1 [Example 19]
1.2	C[C@H]1C(=O)NC[C@@H]1C(=O)Nc1cc(-c2cc(F)cc(OC(C)(C)C(F)(F)F)c2)n(-c2ccc(C(F)(F)F)nc2)n1 [Example 20]
1.2	C[C@H]1C(=O)NC[C@@H]1C(=O)Nc1cc(-c2cc(F)cc(OC(C)(C)C(F)(F)F)c2)n(-c2cncc(F)c2)n1 [Example 21]
